Consider 21 molecules from patent US9266878B2, “Phosphatidylinositol 3-kinase inhibitors” (Gilead Calistoga LLC, priority 2012, dated 2016).

Molecules are shown by their SMILES. A value given as a limit tells only on which side of the number the result lay.

Holding throughout (assay): Enzymatic activity of PI3K isoforms, TR-FRET assay (PIP3 formation)
Holding throughout (assay type): biochemical

One experiment concerns the target PI3Kδ (Homo sapiens (Human), UniProt O00329). An outline of the steps: (§1)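 Heterodimeric recombinant class I PI3K; PIP3 product displaces labeled PIP3 from GRP-1 PH domain, lowering TR-FRET. Reaction 30 min at 25° C, stopped with 10 mM EDTA, 10 nM labeled-PIP3, 35 nM Eu-GRP-1. Read Ex 340 nm, Em 615/665 nm; IC50 in nM.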
The target of the next experiment is PI3Kα (Homo sapiens (Human), UniProt P42336). The method in brief:
as §1

In the next experiment the target is PI3Kβ (Homo sapiens (Human), UniProt P42338). An outline of the steps:
(§2)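 Recombinant heterodimeric class I PI3K enzymes were assayed by TR-FRET. PIP3 product displaces fluorescently labelled PIP3 from the GRP-1 PH domain, lowering the signal; IC50 values are given in nM.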

The next experiment deals with PI3Kγ (Homo sapiens (Human), UniProt P48736). The method in brief:
as §2

Sequence of PI3Kα (P42336 whole entry): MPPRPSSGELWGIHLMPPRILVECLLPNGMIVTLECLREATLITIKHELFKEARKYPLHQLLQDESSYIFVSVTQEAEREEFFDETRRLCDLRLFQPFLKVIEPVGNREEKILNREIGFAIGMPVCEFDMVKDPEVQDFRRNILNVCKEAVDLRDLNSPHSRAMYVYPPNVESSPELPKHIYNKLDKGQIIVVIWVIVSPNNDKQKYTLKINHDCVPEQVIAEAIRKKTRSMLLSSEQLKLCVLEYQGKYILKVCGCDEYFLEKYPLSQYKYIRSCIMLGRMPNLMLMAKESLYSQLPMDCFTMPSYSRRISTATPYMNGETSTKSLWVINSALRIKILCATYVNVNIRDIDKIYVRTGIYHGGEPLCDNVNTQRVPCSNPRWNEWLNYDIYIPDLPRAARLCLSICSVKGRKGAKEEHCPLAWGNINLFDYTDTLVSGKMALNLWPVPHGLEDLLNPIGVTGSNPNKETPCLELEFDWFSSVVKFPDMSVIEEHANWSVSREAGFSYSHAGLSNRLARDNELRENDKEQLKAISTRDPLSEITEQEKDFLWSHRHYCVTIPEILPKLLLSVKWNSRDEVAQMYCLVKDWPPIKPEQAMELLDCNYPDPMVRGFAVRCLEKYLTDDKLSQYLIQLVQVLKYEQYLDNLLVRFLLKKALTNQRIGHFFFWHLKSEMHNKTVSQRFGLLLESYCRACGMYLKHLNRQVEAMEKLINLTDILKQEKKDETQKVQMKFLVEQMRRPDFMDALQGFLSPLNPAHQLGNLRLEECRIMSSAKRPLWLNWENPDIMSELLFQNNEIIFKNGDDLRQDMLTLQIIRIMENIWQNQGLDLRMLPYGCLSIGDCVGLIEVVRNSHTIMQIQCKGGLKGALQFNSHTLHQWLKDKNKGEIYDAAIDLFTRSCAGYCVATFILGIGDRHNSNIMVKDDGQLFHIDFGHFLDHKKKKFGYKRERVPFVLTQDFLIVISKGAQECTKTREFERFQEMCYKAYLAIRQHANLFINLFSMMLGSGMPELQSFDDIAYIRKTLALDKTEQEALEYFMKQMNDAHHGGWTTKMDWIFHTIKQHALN
Sequence of PI3Kα (P27986 whole entry partner): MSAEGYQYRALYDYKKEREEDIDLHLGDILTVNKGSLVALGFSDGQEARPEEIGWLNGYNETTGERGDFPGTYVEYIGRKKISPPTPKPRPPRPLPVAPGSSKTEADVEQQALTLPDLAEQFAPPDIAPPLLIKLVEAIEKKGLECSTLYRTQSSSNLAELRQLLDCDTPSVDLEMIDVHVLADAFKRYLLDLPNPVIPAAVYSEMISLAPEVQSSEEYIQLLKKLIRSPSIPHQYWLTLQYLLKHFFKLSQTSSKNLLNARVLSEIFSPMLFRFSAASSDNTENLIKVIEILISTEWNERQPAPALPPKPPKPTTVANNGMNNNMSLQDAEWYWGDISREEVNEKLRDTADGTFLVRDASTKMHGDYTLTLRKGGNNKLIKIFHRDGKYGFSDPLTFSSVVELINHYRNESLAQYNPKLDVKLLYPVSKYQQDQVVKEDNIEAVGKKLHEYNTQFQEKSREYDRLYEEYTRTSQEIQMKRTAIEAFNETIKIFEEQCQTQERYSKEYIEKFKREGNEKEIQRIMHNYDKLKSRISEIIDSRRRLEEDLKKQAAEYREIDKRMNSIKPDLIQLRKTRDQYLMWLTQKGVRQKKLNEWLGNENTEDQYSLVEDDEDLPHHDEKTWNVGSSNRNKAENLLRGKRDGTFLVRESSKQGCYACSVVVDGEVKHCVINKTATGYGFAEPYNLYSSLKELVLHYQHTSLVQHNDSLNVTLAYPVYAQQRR
Sequence of PI3Kγ (P48736 whole entry): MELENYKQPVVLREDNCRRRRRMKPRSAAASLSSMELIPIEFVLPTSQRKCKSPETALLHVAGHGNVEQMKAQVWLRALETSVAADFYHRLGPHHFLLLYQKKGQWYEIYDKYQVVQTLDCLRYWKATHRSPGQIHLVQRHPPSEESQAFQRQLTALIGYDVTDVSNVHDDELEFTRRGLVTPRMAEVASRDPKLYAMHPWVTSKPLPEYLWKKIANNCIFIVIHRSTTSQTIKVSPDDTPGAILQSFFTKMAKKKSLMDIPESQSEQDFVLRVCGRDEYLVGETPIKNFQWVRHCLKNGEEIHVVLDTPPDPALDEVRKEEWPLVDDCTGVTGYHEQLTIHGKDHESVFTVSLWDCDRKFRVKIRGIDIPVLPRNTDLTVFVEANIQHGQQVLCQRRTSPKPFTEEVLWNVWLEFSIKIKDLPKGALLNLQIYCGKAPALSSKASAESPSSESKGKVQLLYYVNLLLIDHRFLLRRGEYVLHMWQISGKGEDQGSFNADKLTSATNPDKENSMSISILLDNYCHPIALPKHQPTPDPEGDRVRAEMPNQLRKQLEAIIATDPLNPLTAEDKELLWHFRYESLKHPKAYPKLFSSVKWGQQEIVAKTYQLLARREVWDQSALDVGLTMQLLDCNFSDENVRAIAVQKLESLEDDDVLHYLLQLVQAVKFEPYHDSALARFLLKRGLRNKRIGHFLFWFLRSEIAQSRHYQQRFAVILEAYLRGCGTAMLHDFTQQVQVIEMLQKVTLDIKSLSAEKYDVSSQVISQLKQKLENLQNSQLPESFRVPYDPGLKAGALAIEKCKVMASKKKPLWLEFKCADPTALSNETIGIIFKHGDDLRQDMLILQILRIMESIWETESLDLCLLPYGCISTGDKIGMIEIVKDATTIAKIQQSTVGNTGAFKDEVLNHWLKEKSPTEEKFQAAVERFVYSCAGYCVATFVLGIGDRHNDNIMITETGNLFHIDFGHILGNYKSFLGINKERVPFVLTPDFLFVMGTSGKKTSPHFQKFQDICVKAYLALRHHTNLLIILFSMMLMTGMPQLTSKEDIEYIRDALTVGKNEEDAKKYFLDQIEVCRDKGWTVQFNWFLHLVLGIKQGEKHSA
Sequence of PI3Kγ (Q8WYR1 whole entry partner): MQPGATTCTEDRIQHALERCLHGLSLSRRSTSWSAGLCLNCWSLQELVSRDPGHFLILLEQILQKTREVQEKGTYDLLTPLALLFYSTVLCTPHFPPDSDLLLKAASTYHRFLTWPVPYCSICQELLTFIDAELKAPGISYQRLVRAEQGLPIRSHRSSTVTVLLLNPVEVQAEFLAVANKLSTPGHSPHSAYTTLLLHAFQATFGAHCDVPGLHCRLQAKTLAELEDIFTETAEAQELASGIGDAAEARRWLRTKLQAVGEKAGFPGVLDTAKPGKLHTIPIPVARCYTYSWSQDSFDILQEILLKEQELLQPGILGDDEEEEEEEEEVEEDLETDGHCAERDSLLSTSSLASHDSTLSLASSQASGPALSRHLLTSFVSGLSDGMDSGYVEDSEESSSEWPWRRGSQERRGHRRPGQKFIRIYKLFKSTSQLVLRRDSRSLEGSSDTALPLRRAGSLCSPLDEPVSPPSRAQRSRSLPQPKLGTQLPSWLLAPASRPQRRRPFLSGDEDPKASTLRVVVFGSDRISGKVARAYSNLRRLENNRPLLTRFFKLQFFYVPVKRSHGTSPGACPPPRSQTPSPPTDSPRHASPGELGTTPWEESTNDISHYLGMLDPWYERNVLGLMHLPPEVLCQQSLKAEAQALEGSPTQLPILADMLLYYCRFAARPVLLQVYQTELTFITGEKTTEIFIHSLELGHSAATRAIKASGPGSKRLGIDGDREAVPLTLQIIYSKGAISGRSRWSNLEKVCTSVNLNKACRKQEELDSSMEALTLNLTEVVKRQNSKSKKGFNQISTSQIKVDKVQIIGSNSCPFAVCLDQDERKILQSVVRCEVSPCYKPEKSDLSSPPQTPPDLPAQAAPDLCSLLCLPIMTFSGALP
Sequence of PI3Kδ (O00329 whole entry, the tested form may be a part): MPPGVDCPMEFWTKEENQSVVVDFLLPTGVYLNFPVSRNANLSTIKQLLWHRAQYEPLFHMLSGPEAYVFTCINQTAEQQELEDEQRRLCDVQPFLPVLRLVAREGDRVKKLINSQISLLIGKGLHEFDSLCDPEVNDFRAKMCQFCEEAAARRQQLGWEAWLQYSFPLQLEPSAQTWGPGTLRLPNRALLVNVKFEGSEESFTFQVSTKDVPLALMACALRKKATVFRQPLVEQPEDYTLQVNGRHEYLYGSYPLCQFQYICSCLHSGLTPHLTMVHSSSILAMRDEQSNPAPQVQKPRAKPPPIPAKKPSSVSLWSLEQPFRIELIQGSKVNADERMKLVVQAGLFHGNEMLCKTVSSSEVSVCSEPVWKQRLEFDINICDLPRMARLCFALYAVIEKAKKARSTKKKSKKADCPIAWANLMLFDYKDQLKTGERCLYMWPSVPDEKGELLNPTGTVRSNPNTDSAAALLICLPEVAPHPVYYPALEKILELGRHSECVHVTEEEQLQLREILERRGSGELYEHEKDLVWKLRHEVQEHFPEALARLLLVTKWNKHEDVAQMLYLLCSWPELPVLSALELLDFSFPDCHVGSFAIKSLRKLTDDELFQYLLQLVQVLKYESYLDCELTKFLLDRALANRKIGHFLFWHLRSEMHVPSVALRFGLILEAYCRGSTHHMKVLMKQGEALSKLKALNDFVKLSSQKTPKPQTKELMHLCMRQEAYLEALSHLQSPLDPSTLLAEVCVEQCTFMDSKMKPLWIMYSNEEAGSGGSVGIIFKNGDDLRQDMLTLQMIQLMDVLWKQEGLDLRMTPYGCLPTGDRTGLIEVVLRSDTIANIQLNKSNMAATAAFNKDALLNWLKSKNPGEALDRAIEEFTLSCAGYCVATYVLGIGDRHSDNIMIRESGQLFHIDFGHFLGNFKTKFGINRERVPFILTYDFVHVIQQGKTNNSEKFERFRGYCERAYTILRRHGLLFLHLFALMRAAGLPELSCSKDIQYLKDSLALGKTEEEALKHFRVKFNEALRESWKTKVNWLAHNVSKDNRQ
Sequence of PI3Kδ (P27986 whole entry partner, the tested form may be a part): as the sequence (P27986 whole entry partner) above

Turning to `C[C@H](Nc1ncnc(N)c1C#Cc1ccc(F)cn1)c1nc2c(Cl)cccc2c(=O)n1-c1ccccc1` [Compound 5a, (S)-2-(1-(6-amino-5-((5-fluoropyridin-2-yl)ethynyl)pyrimidin-4-ylamino)ethyl)-8-chloro-3-phenylquinazolin-4(3H)-one], the IC50 is less than 100 nM on PI3Kδ (bound given in nM), more than 1 µM on PI3Kα (bound given in uM), more than 1 µM against PI3Kβ (bound given in uM) and more than 1 µM on PI3Kγ (bound given in uM).
As for `C[C@H](Nc1ncnc(N)c1C#Cc1cnccn1)c1nc2cccc(Cl)c2c(=O)n1-c1cc(F)cc(F)c1` [Compound 85a, (S)-2-(1-((6-amino-5-(pyrazin-2-ylethynyl)pyrimidin-4-yl)amino)ethyl)-5-chloro-3-(3,5-difluorophenyl)quinazolin-4(3H)-one], the IC50 at PI3Kδ (bound given in nM) was less than 100 nM; on PI3Kα (bound given in uM) it was more than 1 µM; on PI3Kβ (bound given in uM), more than 1 µM; against PI3Kγ (bound given in uM), more than 1 µM.
For the molecule `C[C@H](Nc1ncnc(N)c1C#Cc1cccc(N)n1)c1nc2cccc(Cl)c2c(=O)n1-c1ccccc1` [Compound 31a, (S)-2-(1-(6-amino-5-((6-aminopyridin-2-yl)ethynyl)pyrimidin-4-ylamino)ethyl)-5-chloro-3-phenylquinazolin-4(3H)-one], the IC50 is less than 100 nM at PI3Kδ (bound given in nM), less than 0.1 µM at PI3Kα (bound given in nM), less than 0.1 µM on PI3Kβ (bound given in nM) and less than 0.1 µM against PI3Kγ (bound given in nM).
Turning to `COc1cc(F)cc(C#Cc2c(N)ncnc2NC(C)c2nc3c(F)ccc(F)c3c(=O)n2-c2ccccc2)c1` (stereo not drawn) [Compound 63a, 2-(1-((6-amino-5-((3-fluoro-5-methoxyphenyl)ethynyl)pyrimidin-4-yl)amino)ethyl)-5,8-difluoro-3-phenylquinazolin-4(3H)-one], the IC50 against PI3Kδ (bound given in nM) was less than 100 nM; against PI3Kα (bound given in uM) it was more than 1 µM; at PI3Kβ (bound given in uM), more than 1 µM; against PI3Kγ (bound given in uM), more than 1 µM.
On to `C[C@H](Nc1ncnc(N)c1C#Cc1ncccc1CO)c1nc2cccc(Cl)c2c(=O)n1-c1ccccc1` [Compound 163a, (S)-2-(1-((6-amino-5-((3-(hydroxymethyl)pyridin-2-yl)ethynyl)pyrimidin-4-yl)amino)ethyl)-5-chloro-3-phenylquinazolin-4(3H)-one], for which the IC50 at PI3Kδ (bound given in uM) was more than 1000 nM; at PI3Kα (bound given in uM) it was more than 1 µM; at PI3Kβ (bound given in uM), more than 1 µM; on PI3Kγ (bound given in uM) it was more than 1 µM.
For `C[C@H](Nc1ncnc(N)c1C#Cc1ccc(F)cn1)c1nc2cccc(Cl)c2c(=O)n1-c1cccc(C#N)c1` [Compound 92a, (S)-3-(2-(1-((6-amino-5-((5-fluoropyridin-2-yl)ethynyl)pyrimidin-4-yl)amino)ethyl)-5-chloro-4-oxoquinazolin-3(4H)-yl)benzonitrile], the IC50 was less than 100 nM on PI3Kδ (bound given in nM), more than 1 µM on PI3Kα (bound given in uM), more than 1 µM against PI3Kβ (bound given in uM) and more than 1 µM on PI3Kγ (bound given in uM).
As for `COc1cc(F)cc(C#Cc2c(N)ncnc2N[C@@H](C)c2nc3cccc(F)c3c(=O)n2-c2ccccc2)c1` [Compound 65a, (S)-2-(1-((6-amino-5-((3-fluoro-5-methoxyphenyl)ethynyl)pyrimidin-4-yl)amino)ethyl)-5-fluoro-3-phenylquinazolin-4(3H)-one], the IC50 was less than 100 nM on PI3Kδ (bound given in nM), more than 1 µM against PI3Kα (bound given in uM), more than 1 µM against PI3Kβ (bound given in uM) and more than 1 µM at PI3Kγ (bound given in uM).
For `C[C@H](Nc1ncnc(N)c1C#Cc1ccc(F)cn1)c1nc2cccc(O)c2c(=O)n1-c1ccccc1` [Compound 52a, (S)-2-(1-((6-amino-5-((5-fluoropyridin-2-yl)ethynyl)pyrimidin-4-yl)amino)ethyl)-5-hydroxy-3-phenylquinazolin-4(3H)-one], the IC50 against PI3Kδ (bound given in nM) is less than 100 nM; against PI3Kα (bound given in uM) it was more than 1 µM; on PI3Kβ (bound given in uM), more than 1 µM; against PI3Kγ (bound given in uM), more than 1 µM.
With `C[C@H](Nc1ncnc(N)c1C#Cc1ccc(F)cn1)c1nc2cccc(Cl)c2c(=O)n1-c1cc(F)cc(F)c1` (single isomer, unassigned) [Compound 9a], the IC50 against PI3Kδ (bound given in nM) was less than 100 nM; on PI3Kα (bound given in uM), more than 1 µM; at PI3Kβ (bound given in uM) it was more than 1 µM; against PI3Kγ (bound given in uM) it was more than 1 µM.
For `C[C@H](Nc1ncnc(N)c1C#Cc1ccc(F)cn1)c1nc2cccc(Cl)c2c(=O)n1-c1cccc(CN(C)S(C)(=O)=O)c1` [Compound 129a, (S)—N-(3-(2-(1-((6-amino-5-((5-fluoropyridin-2-yl)ethynyl)pyrimidin-4-yl)amino)ethyl)-5-chloro-4-oxoquinazolin-3(4H)-yl)benzyl)-N-methylmethanesulfonamide], the IC50 is less than 100 nM on PI3Kδ (bound given in nM), more than 1 µM on PI3Kα (bound given in uM), more than 1 µM at PI3Kβ (bound given in uM) and more than 1 µM against PI3Kγ (bound given in uM).
Regarding `Cc1cccc2nc([C@H](C)Nc3ncnc(N)c3C#Cc3cnccn3)n(-c3cncc(F)c3)c(=O)c12` [Compound 120a, (S)-2-(1-((6-amino-5-(pyrazin-2-ylethynyl)pyrimidin-4-yl)amino)ethyl)-3-(5-fluoropyridin-3-yl)-5-methylquinazolin-4(3H)-one], the IC50 against PI3Kδ (bound given in nM) is less than 100 nM; against PI3Kα (bound given in uM) it was more than 1 µM; against PI3Kβ (bound given in uM), more than 1 µM; at PI3Kγ (bound given in uM), more than 1 µM.
For the molecule `CC[C@H](Nc1ncnc(N)c1C#Cc1cnccn1)c1nc2cccc(C)c2c(=O)n1-c1cc(F)cc(F)c1` [Compound 108a, (S)-2-(1-((6-amino-5-(pyrazin-2-ylethynyl)pyrimidin-4-yl)amino)propyl)-3-(3,5-difluorophenyl)-5-methylquinazolin-4(3H)-one], the IC50 was less than 100 nM against PI3Kδ (bound given in nM), more than 1 µM on PI3Kα (bound given in uM), more than 1 µM against PI3Kβ (bound given in uM) and more than 1 µM on PI3Kγ (bound given in uM).
Regarding `C[C@H](Nc1ncnc(N)c1C#CC1CC1)c1nc2cccc(Cl)c2c(=O)n1-c1ccccc1` [Compound 24a, (S)-2-(1-(6-amino-5-(cyclopropylethynyl)pyrimidin-4-ylamino)ethyl)-5-chloro-3-phenylquinazolin-4(3H)-one], the IC50 against PI3Kδ (bound given in nM) is less than 100 nM; against PI3Kα (bound given in uM), more than 1 µM; against PI3Kβ (bound given in uM), more than 1 µM; against PI3Kγ (bound given in uM) it was more than 1 µM.
`C[C@H](Nc1ncnc(N)c1C#Cc1ccc(F)cn1)c1nc2cccc(Cl)c2c(=O)n1N1CCNCC1` [Compound 127a, (S)-2-(1-((6-amino-5-((5-fluoropyridin-2-yl)ethynyl)pyrimidin-4-yl)amino)ethyl)-5-chloro-3-(piperazin-1-yl)quinazolin-4(3H)-one]: the IC50 is less than 100 nM on PI3Kδ (bound given in nM), more than 1 µM against PI3Kα (bound given in uM), less than 0.1 µM against PI3Kβ (bound given in nM) and more than 1 µM against PI3Kγ (bound given in uM).
`C[C@H](O)C#Cc1c(N)ncnc1N[C@@H](C)c1nc2cccc(Cl)c2c(=O)n1-c1cc(F)cc(F)c1` [Compound 20b, 2-((S)-1-(6-amino-5-((S)-3-hydroxybut-1-ynyl)pyrimidin-4-ylamino)ethyl)-5-chloro-3-(3,5-difluorophenyl)quinazolin-4(3H)-one]: the IC50 against PI3Kδ (bound given in nM) is less than 100 nM; at PI3Kα (bound given in uM), more than 1 µM; against PI3Kβ (bound given in uM) it was more than 1 µM; at PI3Kγ (bound given in uM) it was more than 1 µM.
For `C[C@H](Nc1ncnc(N)c1C#Cc1ncccn1)c1nc2cccc(Cl)c2c(=O)n1-c1cc(F)cc(F)c1` [Compound 103a, (S)-2-(1-((6-amino-5-(pyrimidin-2-ylethynyl)pyrimidin-4-yl)amino)ethyl)-5-chloro-3-(3,5-difluorophenyl)quinazolin-4(3H)-one], the IC50 is less than 100 nM at PI3Kδ (bound given in nM), more than 1 µM against PI3Kα (bound given in uM), more than 1 µM at PI3Kβ (bound given in uM) and more than 1 µM against PI3Kγ (bound given in uM).
Consider `C[C@H](Nc1ncnc(N)c1C#Cc1cccc(CN)n1)c1nc2cccc(Cl)c2c(=O)n1-c1ccccc1` [Compound 159a, (S)-2-(1-((6-amino-5-((6-(aminomethyl)pyridin-2-yl)ethynyl)pyrimidin-4-yl)amino)ethyl)-5-chloro-3-phenylquinazolin-4(3H)-one], for which the half-inhibitory concentration (IC50) against PI3Kδ (bound given in nM) was less than 100 nM; against PI3Kα (bound given in uM), more than 1 µM; against PI3Kβ (bound given in uM), more than 1 µM; at PI3Kγ (bound given in uM) it was more than 1 µM.
As to `CC[C@H](Nc1ncnc(N)c1C#Cc1cnccn1)c1nc2cccc(C(F)F)c2c(=O)n1-c1cc(F)cc(F)c1` [Compound 74a, (S)-2-(1-((6-amino-5-(pyrazin-2-ylethynyl)pyrimidin-4-yl)amino)propyl)-5-(difluoromethyl)-3-(3,5-difluorophenyl)quinazolin-4(3H)-one], the IC50 on PI3Kδ (bound given in nM) was less than 100 nM; against PI3Kα (bound given in uM), more than 1 µM; against PI3Kβ (bound given in uM) it was more than 1 µM; at PI3Kγ (bound given in uM), more than 1 µM.
Turning to `C[C@H](Nc1ncnc(N)c1C#Cc1cnccn1)c1nc2ccc(F)cc2c(=O)n1-c1cccc(C#N)c1` [Compound 95a, (S)-3-(2-(1-((6-amino-5-(pyrazin-2-ylethynyl)pyrimidin-4-yl)amino)ethyl)-6-fluoro-4-oxoquinazolin-3(4H)-yl)benzonitrile], the IC50 on PI3Kδ (bound given in nM) was less than 100 nM; against PI3Kα (bound given in uM), more than 1 µM; on PI3Kβ (bound given in uM), more than 1 µM; at PI3Kγ (bound given in uM) it was more than 1 µM.
With `CC(=O)c1cccc(C#Cc2c(N)ncnc2N[C@@H](C)c2nc3cccc(Cl)c3c(=O)n2-c2ccccc2)c1` [Compound 161a, (S)-2-(1-((5-((3-acetylphenyl)ethynyl)-6-aminopyrimidin-4-yl)amino)ethyl)-5-chloro-3-phenylquinazolin-4(3H)-one], the IC50 was less than 100 nM against PI3Kδ (bound given in nM), less than 0.1 µM against PI3Kα (bound given in nM), less than 0.1 µM against PI3Kβ (bound given in nM) and less than 0.1 µM at PI3Kγ (bound given in nM).
Regarding `C[C@H](Nc1ncnc(N)c1C#Cc1ccc(F)cn1)c1nc2cccc(F)c2c(=O)n1-c1cccc(F)c1` [Compound 99a, (S)-2-(1-((6-amino-5-((5-fluoropyridin-2-yl)ethynyl)pyrimidin-4-yl)amino)ethyl)-5-fluoro-3-(3-fluorophenyl)quinazolin-4(3H)-one], the IC50 is less than 100 nM against PI3Kδ (bound given in nM), more than 1 µM against PI3Kα (bound given in uM), more than 1 µM on PI3Kβ (bound given in uM) and more than 1 µM against PI3Kγ (bound given in uM).
